Test results from patent US8071780B2, “2-Hydroxymethyl-3,4,5-trihydroxy-1-benzilpiperidine derivatives as inhibitors of glucosylceramide” (Actelion Pharmaceuticals Ltd., priority 2003, dated 2011).

How the values were obtained:
[1] = target: T1, human recombinant GCS expressed in insect cells (Homo sapiens, UniProt Q16739); experiment: Inhibition of GCS (glucosylceramide synthase); assay type: biochemical
T1 construct: made in house; host or cells: insect cells
T1 sequence (Q16739 1-394): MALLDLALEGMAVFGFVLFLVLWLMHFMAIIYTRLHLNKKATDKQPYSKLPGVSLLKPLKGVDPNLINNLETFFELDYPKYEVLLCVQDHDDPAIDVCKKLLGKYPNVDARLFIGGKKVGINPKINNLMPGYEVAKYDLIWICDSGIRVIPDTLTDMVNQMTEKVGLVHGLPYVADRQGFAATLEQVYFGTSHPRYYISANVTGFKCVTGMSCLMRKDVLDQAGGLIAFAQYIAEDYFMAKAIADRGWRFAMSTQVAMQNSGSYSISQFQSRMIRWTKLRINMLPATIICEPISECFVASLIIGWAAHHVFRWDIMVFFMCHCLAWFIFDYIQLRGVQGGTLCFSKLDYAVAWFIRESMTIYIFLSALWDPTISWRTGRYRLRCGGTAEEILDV
Protocol: The assay for inhibition of GCS was performed essentially as described in Platt et al., J. Biol. Chem., (1994), 269, 27108, the enzyme source being human recombinant GCS expressed in insect cells.

[2] = target: T2, non-lysosomal-β-glucocerebrosidase (Homo sapiens, UniProt Q9HCG7); experiment: Inhibition of non-lysosomal-β-glucocerebrosidase; assay type: biochemical; conditions: whole cell extracts of MCF7 as enzyme source; 5 mM 4-MU β-glucoside; pH 5.8
T2 construct: whole cell extracts of MCF7 (a human breast carcinoma cell line) was used as the source of the enzyme; endogenous in cells; host or cells: MCF7 whole cell extract
T2 sequence (Q9HCG7 1-927): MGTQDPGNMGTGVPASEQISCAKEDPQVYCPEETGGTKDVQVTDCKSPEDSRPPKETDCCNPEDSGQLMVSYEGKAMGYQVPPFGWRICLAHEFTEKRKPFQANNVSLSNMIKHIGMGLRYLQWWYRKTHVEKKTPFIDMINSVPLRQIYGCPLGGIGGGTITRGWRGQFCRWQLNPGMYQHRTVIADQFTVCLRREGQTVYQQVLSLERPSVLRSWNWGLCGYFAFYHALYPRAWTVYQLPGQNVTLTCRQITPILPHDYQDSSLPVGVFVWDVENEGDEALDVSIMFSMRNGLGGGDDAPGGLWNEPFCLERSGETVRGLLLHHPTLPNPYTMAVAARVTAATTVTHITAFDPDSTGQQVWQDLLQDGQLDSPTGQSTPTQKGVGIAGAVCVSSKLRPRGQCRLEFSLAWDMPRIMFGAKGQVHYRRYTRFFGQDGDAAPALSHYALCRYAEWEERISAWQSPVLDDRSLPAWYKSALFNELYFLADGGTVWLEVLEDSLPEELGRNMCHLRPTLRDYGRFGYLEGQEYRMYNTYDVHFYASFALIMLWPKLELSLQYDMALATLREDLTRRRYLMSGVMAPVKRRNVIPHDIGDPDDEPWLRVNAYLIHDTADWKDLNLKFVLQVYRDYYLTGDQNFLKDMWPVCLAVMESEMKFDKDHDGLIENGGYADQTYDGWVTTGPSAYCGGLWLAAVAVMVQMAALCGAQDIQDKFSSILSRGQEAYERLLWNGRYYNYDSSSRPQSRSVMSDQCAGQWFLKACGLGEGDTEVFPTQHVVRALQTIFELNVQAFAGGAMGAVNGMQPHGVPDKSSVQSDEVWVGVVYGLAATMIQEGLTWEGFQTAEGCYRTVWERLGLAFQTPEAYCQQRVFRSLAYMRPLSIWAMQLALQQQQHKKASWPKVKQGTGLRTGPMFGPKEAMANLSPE
Protocol: Inhibition of non-lysosomal-β-glucocerebrosidase
The assay for inhibition of non-lysosomal-β-glucocerebrosidase was essentially carried out as described in Overkleeft, H. S. et al., J. Biol. Chem. (1998) 273, 26522-26527 with the following differences: whole cell extracts of MCF7 (a human breast carcinoma cell line) was used as the source of the enzyme instead of splenic membrane suspensions; 5 mM instead of 3 mM, 4-MU β-glucoside was used as substrate and 0.2M citrate/phosphate (pH 5.8) was used instead of McIlvaine buffer.

human GCS = target: T3, human GCS (Homo sapiens, UniProt Q16739); experiment: Cell-based IC50 for GCS inhibition by measuring glucosylceramide (GlcCer) depletion; conditions: MCF-7 cells cultured 5-7 days with compound; GlcCer depletion by HPTLC; read-out: Inhibition of GCS Cellular-based (IC50 μM)
T3 construct: endogenous in cells; host or cells: MCF-7
T3 sequence (Q16739 1-394): T1 sequence (Q16739 1-394)
Protocol: Estimating the Cell-Based IC50 for GCS Inhibition by Measuring Glucosylceramide (GlcCer) Depletion
Human mammary epithelial cells (MCF-7) were cultured for 5-7 days, with varying concentrations of a compound of the invention to be tested (0; 0.01; 0.05; 0.25; 1.25 and 6.25 μM). The cells were harvested and the total cellular lipids extracted. Neutral glycolipids were separated by partitioning in a DIPE/1-butanol/saline suspension, according to methods well known to those skilled in the art. The neutral glycolipid extracts were then separated by High-Performance Thin Layer Chromatography (HPTLC), using non-polar TLC conditions (chloroform:methanol: 0.2% CaCl2; 65:35:8), according to methods well known to those skilled in the art. GlcCer bands were visualized and the TLC plates were scanned immediately. Scion Image software was then used to quantify GlcCer in the samples relative to a GlcCer standard. This enabled a cell-based IC50 to be calculated for compounds of the invention for GCS inhibition.

SMILES	IC50 [1] [µM]	IC50 [2] [µM]	IC50 (human GCS) [µM]
CCCCOc1ccc(CN2C[C@H](O)[C@@H](O)[C@H](O)[C@@H]2CO)cc1 [Example 2, 3,4,5-Piperidinetriol, 1-[(4-butoxyphenyl)methyl]-2-(hydroxymethyl)-, (2S,3R,4R,5S)]	0.42	0.004	
CCCCCOc1ccc(CN2C[C@H](O)[C@@H](O)[C@H](O)[C@@H]2CO)cc1 [Example 1, 3,4,5-Piperidinetriol, 2-(hydroxymethyl)-1-[(4-pentyloxyphenyl)methyl]-, (2S,3R,4R,5S)]	0.15	0.001	~0.015
